Test results taken from patent publication US4220644A, “7-Acylamino-3-(substituted tetrazolyl thiomethyl) cephalosporins” (SmithKline Corporation, priority 1976, dated 1980).
≈ marks a conversion by molar mass, not a printed value. Read-outs that look alike come from different tables or passages of the source.

Assays:
[1] = test system: Proteus morgani 179; assay: MIC in vitro (Table 1), Proteus morgani 179; format: cell-based; details: read-out: MIC
From the text: (§1) Compound names corresponding to numbers are given in the experimental section. For comparative purposes, data for cephamandole, which is 7-mandelamido-3-(1-methyltetrazol-5-ylthiomethyl)-3-cephem-4-carboxylic acid, is also given in Tables 1 and 2.

[2] = test system: Salmonella ATCC 12176; assay: MIC in vitro (Table 1), Salmonella ATCC 12176; format: cell-based
From the text: as §1, with “The compounds of Formula I have antibacterial activity against both Gram-positive and Gram-negative organisms. […] Compound” for “Compound”

[3] = test system: Kleb. pneumo. SK 1200; assay: MIC in vitro (Table 1), Kleb. pneumo. SK 1200; format: cell-based
From the text: as §1

[4] = test system: E. coli SK 12140; assay: MIC in vitro (Table 1), E. coli SK 12140; format: cell-based; details: Escherichia coli, SK12140, in vitro
From the text: as §1

[5] = test system: S. aureus SK 23390; assay: MIC in vitro (Table 1), S. aureus SK 23390; format: cell-based; details: Staphylococcus aureus
From the text: as §1

[6] = test system: Entero. cloacae HH 31254; assay: MIC in vitro (Table 1), Entero. cloacae HH 31254; format: cell-based; details: Enterobacter cloacae
From the text: as §1

[7] = test system: E. coli 12140; assay: In vivo mouse protection (Table 2), E. coli 12140
From the text: as §1

[8] = test system: Strep. Faecalis HH 34358; assay: MIC in vitro (Table 1), Strep. Faecalis HH 34358; format: cell-based; details: Enterococcus faecalis
From the text: as §1

[9] = test system: Kleb. pneumo. SK 4200; assay: MIC in vitro (Table 1), Kleb. pneumo. SK 4200; format: cell-based
From the text: as §1

[10] = test system: Kleb. pneumo. 4200; assay: In vivo mouse protection (Table 2), Kleb. pneumo. 4200
From the text: as §1

[11] = test system: Shigella HH 117; assay: MIC in vitro (Table 1), Shigella HH 117; format: cell-based; details: Shigella, HH117, in vitro, read-out: MIC
From the text: as §1, with “The compounds of Formula I have antibacterial activity against both Gram-positive and Gram-negative organisms. […] Compound” for “Compound”

[12] = test system: E. coli HH 33779; assay: MIC in vitro (Table 1), E. coli HH 33779; format: cell-based; details: Escherichia coli
From the text: as §1

[13] = test system: Pseudo. sp. HH 63; assay: MIC in vitro (Table 1), Pseudo. sp. HH 63; format: cell-based; details: in vitro, Pseudo. sp. HH 63; read-out: MIC
From the text: as §1, with “The compounds of Formula I have antibacterial activity against both Gram-positive and Gram-negative organisms. […] Compound” for “Compound”

[14] = test system: S. aureus HH 127; assay: MIC in vitro (Table 1), S. aureus HH 127; format: cell-based; details: Staphylococcus aureus
From the text: as §1

[15] = test system: Serra. Marc. ATCC 13880; assay: MIC in vitro (Table 1), Serra. Marc. ATCC 13880; format: cell-based
From the text: as §1

[16] = test system: Entero. aerog. ATCC 13048; assay: MIC in vitro (Table 1), Entero. aerog. ATCC 13048; format: cell-based
From the text: as §1

[17] = Salmonella, ATCC12176, in vitro, read-out: MIC
[18] = SK23390, in vitro, S. aureus SK 23390, read-out: MIC
[19] = Escherichia coli, 12140, po, E. coli 12140, p.o.
[20] = Escherichia coli, 12140, sc, E. coli 12140, s.c.
[21] = in vitro, Strep. Faecalis HH 34358, read-out: MIC
[22] = HH31254, in vitro, Entero. cloacae HH 31254, read-out: MIC
[23] = in vitro, Kleb. pneumo. SK 4200, read-out: MIC
[24] = HH33779, in vitro, E. coli HH 33779, read-out: MIC
[25] = in vitro, Entero. aerog. ATCC 13048, read-out: MIC
[26] = HH127, in vitro, S. aureus HH 127, read-out: MIC

NC(=O)CCn1nnnc1SCC1=C(C(=O)O)N2C(=O)C(NC(=O)[C@H](N)c3ccc(O)cc3)[C@H]2SC1 (stereo partly drawn) [X, 7-(D-α-Amino-4-hydroxyphenylacetamido)-3-[1-(2-carbamoylethyl)tetrazol-5-ylthiomethyl]-3-cephem-4-carboxylic acid]
MIC [1]: 25 µg/mL (≈ 46.8 µM) | MIC [2, 17]: 0.8 µg/mL (≈ 1.5 µM) | MIC ([3]; read-out: MIC): 3.1 µg/mL (≈ 5.8 µM) | MIC [4]: 1.6 µg/mL (≈ 2.99 µM) | MIC [5, 18]: 12.5 µg/mL (≈ 23.4 µM) | MIC ([6]; HH31254): 1.6 µg/mL (≈ 2.99 µM) | ED50 [7, 19]: 25 mg/kg | ED50 [7, 20]: 0.78 mg/kg | MIC [8, 21]: 25 µg/mL (≈ 46.8 µM) | MIC [9]: 1.6 µg/mL (≈ 2.99 µM) | ED50 ([10]; po, Kleb. pneumo. 4200, p.o.): 15.6 mg/kg | ED50 ([10]; sc, Kleb. pneumo. 4200, s.c.): 0.62 mg/kg | MIC [11]: 1.6 µg/mL (≈ 2.99 µM) | MIC ([12]; HH33779): 1.6 µg/mL (≈ 2.99 µM) | MIC [13]: > 200 µg/mL | MIC ([14]; HH127): 6.3 µg/mL (≈ 11.8 µM)

O=C(O)CCCn1nnnc1SCC1=C(C(=O)O)N2C(=O)C(NC(=O)[C@H](O)c3ccccc3)[C@H]2SC1 (stereo partly drawn) [XII, 7-D-Mandelamido-3-[1-(3-carboxypropyl)tetrazol-5-ylthiomethyl]-3-cephem-4-carboxylic acid]
MIC [2, 17]: 0.4 µg/mL (≈ 0.748 µM) | MIC ([2]; in vitro): 0.8 µg/mL (≈ 1.5 µM) | MIC [3]: 1.6 µg/mL (≈ 2.99 µM) | MIC ([3]; read-out: MIC): 0.8 µg/mL (≈ 1.5 µM) | MIC ([4]; read-out: MIC): 1.6 µg/mL (≈ 2.99 µM) | MIC ([5]; SK23390): 0.4 µg/mL (≈ 0.748 µM) | MIC [6, 22]: 0.8 µg/mL (≈ 1.5 µM) | ED50 [7, 19]: > 50 mg/kg | ED50 [7, 20]: 1.84 mg/kg | MIC [8]: 12.5 µg/mL (≈ 23.4 µM) | MIC [9, 23]: 1.6 µg/mL (≈ 2.99 µM) | ED50 ([10]; sc, Kleb. pneumo. 4200, s.c.): 2.9 mg/kg | MIC [15]: 12.5 µg/mL (≈ 23.4 µM) | MIC [16]: 3.1 µg/mL (≈ 5.8 µM) | MIC [11]: 0.4 µg/mL (≈ 0.748 µM) | MIC [12, 24]: 1.6 µg/mL (≈ 2.99 µM) | MIC [13]: > 200 µg/mL | MIC ([14]; HH127): 3.1 µg/mL (≈ 5.8 µM)

O=C(O)CCCCCn1nnnc1SCC1=C(C(=O)O)N2C(=O)C(NC(=O)[C@H](O)c3ccccc3)[C@H]2SC1 (stereo partly drawn) [XIII, 7-D-Mandelamido-3-[1-(5-carboxypentyl)tetrazol-5-ylthiomethyl]-3-cephem-4-carboxylic acid]
MIC [1]: 1.6 µg/mL (≈ 2.84 µM) | MIC [2, 17]: 1.6 µg/mL (≈ 2.84 µM) | MIC ([3]; read-out: MIC): 1.6 µg/mL (≈ 2.84 µM) | MIC ([4]; read-out: MIC): 1.6 µg/mL (≈ 2.84 µM) | MIC ([5]; SK23390): 0.8 µg/mL (≈ 1.42 µM) | MIC ([6]; HH31254): 0.8 µg/mL (≈ 1.42 µM) | ED50 [7, 20]: 1.56 mg/kg | MIC [8, 21]: 25 µg/mL (≈ 44.4 µM) | MIC [9]: 0.8 µg/mL (≈ 1.42 µM) | ED50 ([10]; sc, Kleb. pneumo. 4200, s.c.): 0.54 mg/kg | MIC [16, 25]: 6.3 µg/mL (≈ 11.2 µM) | MIC [11]: 0.8 µg/mL (≈ 1.42 µM) | MIC [12, 24]: 3.1 µg/mL (≈ 5.51 µM) | MIC [13]: > 200 µg/mL | MIC [14, 26]: 3.1 µg/mL (≈ 5.51 µM)

NC(=O)CCCCCn1nnnc1SCC1=C(C(=O)O)N2C(=O)C(NC(=O)[C@H](O)c3ccccc3)[C@H]2SC1 (stereo partly drawn) [XIV, 7-D-Mandelamido-3-[1-(5-carbamoylpentyl)tetrazol-5-ylthiomethyl]-3-cephem-4-carboxylic acid]
MIC [2, 17]: 3.1 µg/mL (≈ 5.52 µM) | MIC ([3]; read-out: MIC): 3.1 µg/mL (≈ 5.52 µM) | MIC ([4]; read-out: MIC): 3.1 µg/mL (≈ 5.52 µM) | MIC ([5]; SK23390): 0.4 µg/mL (≈ 0.712 µM) | MIC [6, 22]: 1.6 µg/mL (≈ 2.85 µM) | ED50 [7, 20]: 1.1 mg/kg | MIC [8]: 12.5 µg/mL (≈ 22.3 µM) | MIC [9, 23]: 1.6 µg/mL (≈ 2.85 µM) | ED50 ([10]; sc, Kleb. pneumo. 4200, s.c.): 1.1 mg/kg | MIC [15]: 25 µg/mL (≈ 44.5 µM) | MIC [16, 25]: 6.3 µg/mL (≈ 11.2 µM) | MIC [11]: 0.8 µg/mL (≈ 1.42 µM) | MIC [12, 24]: 3.1 µg/mL (≈ 5.52 µM) | MIC [13]: > 200 µg/mL | MIC [14, 26]: 1.6 µg/mL (≈ 2.85 µM)

NC(=O)CCCn1nnnc1SCC1=C(C(=O)O)N2C(=O)C(NC(=O)CSC(F)(F)F)[C@H]2SC1 (stereo partly shown) [XX, 7-Trifluoromethylmercaptoacetamido-3-[1-(3-carbamoylpropyl)tetrazol-5-ylthiomethyl]-3-cephem-4-carboxylic acid]
MIC [1]: 12.5 µg/mL (≈ 23.1 µM) | MIC [2, 17]: 0.2 µg/mL (≈ 0.369 µM) | MIC [3]: 0.4 µg/mL (≈ 0.739 µM) | MIC ([4]; read-out: MIC): 0.8 µg/mL (≈ 1.48 µM) | MIC [5, 18]: 0.2 µg/mL (≈ 0.369 µM) | MIC [6, 22]: 0.8 µg/mL (≈ 1.48 µM) | ED50 [7, 19]: 21.5 mg/kg | ED50 [7, 20]: 0.7 mg/kg | MIC [8, 21]: 6.3 µg/mL (≈ 11.6 µM) | MIC [9]: 0.4 µg/mL (≈ 0.739 µM) | MIC [16]: 3.1 µg/mL (≈ 5.72 µM) | MIC [11]: 0.2 µg/mL (≈ 0.369 µM) | MIC [12, 24]: 0.8 µg/mL (≈ 1.48 µM) | MIC [13]: > 200 µg/mL | MIC [14, 26]: 0.4 µg/mL (≈ 0.739 µM)
